Consider 8 compounds from patent US12594276B2, “Inhibitors of human immunodeficiency virus replication” (ViiV Healthcare UK (No.5) Limited, priority 2024, dated 2026).

Data set [1] has as its system recombinant NL4-3 virus (nef section replaced with Renilla luciferase gene) in MT-2 cells. As to the kind of experiment: HIV cell culture assay (antiviral activity, luciferase readout). It is filed as cell-based. Conditions: Renilla, NL43, MT-2 cells infected for 4-5 days with recombinant NL4-3 Renilla luciferase virus. In a few lines: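 293T transfection → virus harvest at 2-3 d → titer in MT-2 by luciferase. MT-2 + virus + serial cpd dilutions, 4-5 d. Live-cell luciferase read; EC50 by median effect fit.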

Data set [2] is described as follows: Compound cytotoxicity, XTT-based colorimetric assay. Conditions: human; uninfected MT2 cells, day 4, XTT; read-out: CC50. It is filed as cell-based. The gist of the method:
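Cells seeded as for the antiviral assay but left uninfected (MT2). Compound exposure continued to day 4. XTT reagent added and colour read. CC50 calculated.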
Background: Tetrazolium assays rely on reduction of a dye to a coloured formazan, in cell work by metabolically active cells.

Take `CC(=O)c1cc(C2CCC(F)(F)CC2)nc2nc([C@H](Cc3cc(F)cc(F)c3)NC(=O)Cn3nc(C(F)F)c4c3C(F)(F)[C@@H]3C[C@H]43)n(-c3ccc(Cl)c4c(NS(C)(=O)=O)nn(CCN5CCC(F)(F)CC5)c34)c(=O)c12` (atropisomer, axis not shown; (P)) [Example 746, N-[(1S)-1-[(3P)-5-acetyl-3-{4-chloro-1-[2-(4,4-difluoropiperidin-1-yl)ethyl]-3-methanesulfonamido-1H-indazol-7-yl}-7-(4,4-difluorocyclohexyl)-4-oxo-3H,4H-pyrido[2,3-d]pyrimidin-2-yl]-2-(3,5-difluorophenyl)ethyl]-2-[(2S,4R)-9-(difluoromethyl)-5,5-difluoro-7,8-diazatricyclo[4.3.0.0^2,4]nona-1(6),8-dien-7-yl]acetamide]: the EC50 – broadly, the concentration that produces a half-maximal response – in data set [1] was 0.008 nM. Besides, in data set [2], the CC50 (commonly the concentration at which the toxic effect on the cells reaches its halfway point) at 4 days was over 20 nM.

With `Cc1cc(C2(F)CCC(F)(F)CC2)nc2nc([C@H](Cc3cc(F)cc(F)c3)NC(=O)Cn3nc(C(F)F)c4c3C(F)(F)[C@@H]3C[C@H]43)n(-c3ccc(Cl)c4c(NS(C)(=O)=O)nn([C@@H](C)CN5C[C@@H](C)O[C@@H](C)C5)c34)c(=O)c12` (atropisomer, axis not shown; (P)) [Example 747, N-[(1S)-1-[(3P)-3-{4-chloro-1-[(2S)-1-[(2R,6S)-2,6-dimethylmorpholin-4-yl]propan-2-yl]-3-methanesulfonamido-1H-indazol-7-yl}-5-methyl-4-oxo-7-(1,4,4-trifluorocyclohexyl)-3H,4H-pyrido[2,3-d]pyrimidin-2-yl]-2-(3,5-difluorophenyl)ethyl]-2-[(2S,4R)-9-(difluoromethyl)-5,5-difluoro-7,8-diazatricyclo[4.3.0.0^2,^4]nona-1(6),8-dien-7-yl]acetamide], the concentration giving a half-maximal response (EC50) in data set [1] was 0.017 nM. Besides, the CC50 at 4 days in data set [2] was over 20 nM.

Turning to `Cc1cc(C2(F)CCC(F)(F)CC2)nc2nc([C@H](Cc3cc(F)cc(F)c3)NC(=O)Cn3nc(C(F)F)c4c3C(F)(F)[C@@H]3C[C@H]43)n(-c3ccc(Cl)c4c(NS(C)(=O)=O)nn([C@H](C)C(=O)N5CC(C)(C)OC(C)(C)C5)c34)c(=O)c12` (atropisomer, axis not shown; (P)) [Example 749, N-[(1S)-1-[(3P)-3-{4-chloro-3-methanesulfonamido-1-[(2R)-1-oxo-1-(2,2,6,6-tetramethylmorpholin-4-yl)propan-2-yl]-1H-indazol-7-yl}-5-methyl-4-oxo-7-(1,4,4-trifluorocyclohexyl)-3H,4H-pyrido[2,3-d]pyrimidin-2-yl]-2-(3,5-difluorophenyl)ethyl]-2-[(2S,4R)-9-(difluoromethyl)-5,5-difluoro-7,8-diazatricyclo[4.3.0.0^2,^4]nona-1(6),8-dien-7-yl]acetamide], the EC50 in data set [1] was found to be 0.018 nM. Further, the CC50 at 4 days in data set [2] was over 20 nM.

For the compound `Cc1cc(C2(F)CCC(F)(F)CC2)nc2nc([C@H](Cc3cc(F)cc(F)c3)NC(=O)Cn3nc(C(F)F)c4c3C(F)(F)[C@@H]3C[C@H]43)n(-c3ccc(Cl)c4c(NS(C)(=O)=O)nn([C@@H](C)CN5C[C@H](F)C[C@H](F)C5)c34)c(=O)c12` (atropisomer, axis not shown; (P)) [Example 753, N-[(1S)-1-[(3P)-3-{4-chloro-1-[(2S)-1-[(3R,5S)-3,5-difluoropiperidin-1-yl]propan-2-yl]-3-methanesulfonamido-1H-indazol-7-yl}-5-methyl-4-oxo-7-(1,4,4-trifluorocyclohexyl)-3H,4H-pyrido[2,3-d]pyrimidin-2-yl]-2-(3,5-difluorophenyl)ethyl]-2-[(2S,4R)-9-(difluoromethyl)-5,5-difluoro-7,8-diazatricyclo[4.3.0.0^2,^4]nona-1(6),8-dien-7-yl]acetamide], the concentration for a half-maximal effect (EC50) in data set [1] was 0.026 nM. Besides, the CC50 at 4 days in data set [2] is over 20 nM.

As for `CCc1cc(C2CCC(F)(F)CC2)nc2nc([C@H](Cc3cc(F)cc(F)c3)NC(=O)Cn3nc(C(F)F)c4c3C[C@H]3C[C@@H]43)n(-c3ccc(Cl)c4c(NS(C)(=O)=O)nn(CCOC)c34)c(=O)c12` (relative stereo) [Example 636, N-[(1S)-1-[(3P)-3-[4-chloro-3-methanesulfonamido-1-(2-methoxyethyl)-1H-indazol-7-yl]-7-(4,4-difluorocyclohexyl)-5-ethyl-4-oxo-3H,4H-pyrido[2,3-d]pyrimidin-2-yl]-2-(3,5-difluorophenyl)ethyl]-2-[(2R*,4R*)-9-(difluoromethyl)-7,8-diazatricyclo[4.3.0.0^2,^4]nona-1(6),8-dien-7-yl]acetamide], the EC50 in data set [1] was 0.015 nM. The cytotoxic concentration (CC50) at 4 days in data set [2] was over 50 nM.

For the compound `CCc1cc(C2CCC(F)(F)CC2)nc2nc([C@H](Cc3cc(F)cc(F)c3)NC(=O)Cn3nc(C(F)(F)F)c4c3C[C@H]3C[C@@H]43)n(-c3ccc(Cl)c4c(NS(C)(=O)=O)nn(CCCOC)c34)c(=O)c12` (relative stereo) [Example 641, N-[(1S)-1-[(3P)-3-[4-chloro-3-methanesulfonamido-1-(3-methoxypropyl)-1H-indazol-7-yl]-7-(4,4-difluorocyclohexyl)-5-ethyl-4-oxo-3H,4H-pyrido[2,3-d]pyrimidin-2-yl]-2-(3,5-difluorophenyl)ethyl]-2-[(2R*,4R*)-9-(trifluoromethyl)-7,8-diazatricyclo[4.3.0.0^2,^4]nona-1(6),8-dien-7-yl]acetamide], the 50% effective concentration (EC50) in data set [1] was 0.029 nM. In data set [2], the CC50 at 4 days is over 50 nM.

On to `CCc1cc(C2CCC(F)(F)CC2)nc2nc([C@H](Cc3cc(F)cc(F)c3)NC(=O)Cn3nc(C(F)F)c4c3C[C@H]3C[C@@H]43)n(-c3ccc(Cl)c4c(NS(C)(=O)=O)nn(CCCOC)c34)c(=O)c12` (relative stereo) [Example 643, N-[(1S)-1-[(3P)-3-[4-chloro-3-methanesulfonamido-1-(3-methoxypropyl)-1H-indazol-7-yl]-7-(4,4-difluorocyclohexyl)-5-ethyl-4-oxo-3H,4H-pyrido[2,3-d]pyrimidin-2-yl]-2-(3,5-difluorophenyl)ethyl]-2-[(2R*,4R*)-9-(difluoromethyl)-7,8-diazatricyclo[4.3.0.0^2,^4]nona-1(6),8-dien-7-yl]acetamide], for which, in data set [1], the half-maximal effective concentration (EC50) was determined as 0.017 nM. In data set [2], the 50% cytotoxic concentration (CC50) at 4 days is over 50 nM.

For `Cc1cc(C2CCC(F)(F)CC2)nc2nc([C@H](Cc3cc(F)cc(F)c3)NC(=O)Cn3nc(C4CC4)c4c3C[C@@H]3C[C@H]43)n(-c3ccc(Cl)c4c(NS(C)(=O)=O)nn([C@H](C)C(=O)N5C[C@@H](C)O[C@@H](C)C5)c34)c(=O)c12` (relative stereo) [Example 679, N-[(1S)-1-[(3P)-3-{4-chloro-1-[(2R)-1-[(2R,6S)-2,6-dimethylmorpholin-4-yl]-1-oxopropan-2-yl]-3-methanesulfonamido-1H-indazol-7-yl}-7-(4,4-difluorocyclohexyl)-5-methyl-4-oxo-3H,4H-pyrido[2,3-d]pyrimidin-2-yl]-2-(3,5-difluorophenyl)ethyl]-2-[(2R*,4R*)-9-cyclopropyl-7,8-diazatricyclo[4.3.0.0^2,^4]nona-1(6),8-dien-7-yl]acetamide], in data set [1], the concentration for a half-maximal effect (EC50) is 0.012 nM. For the same compound, the 50% cytotoxic concentration (CC50) at 4 days in data set [2] is over 20 nM.
